Measurements taken from patent US7692030B2, “Conjugates of artemisinin-related endoperoxides and hydrazone derivatives for the treatment of cancer” (University of Washington, priority 2006, dated 2010).
“Also recorded” adds a separate entry of the source.

What was measured:
Format in all cases: cell-based
[1] = test system: 786-0; experiment: NCI DTP human tumor cell line screen (SRB); conditions: Renal Cancer, 10 μM, 48 h
How it was run: (§1)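 Single-dose 10 μM compound exposure for 48 h after 24 h preincubation; TCA fixation, sulforhodamine B staining, A515. Growth % = [(Ti−Tz)/(C−Tz)]×100 when Ti≥Tz, or [(Ti−Tz)/Tz]×100 when Ti<Tz.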

[2] = test system: BT-549; experiment: NCI DTP human tumor cell line screen (SRB); conditions: Breast Cancer, 10 μM, 48 h
How it was run: as §1

[3] = test system: HCC-2998; experiment: NCI DTP human tumor cell line screen (SRB); conditions: Colon Cancer, 10 μM, 48 h
How it was run: as §1

[4] = test system: HCT-15; experiment: NCI DTP human tumor cell line screen (SRB); conditions: Colon Cancer, 10 μM, 48 h
How it was run: as §1

[5] = test system: HOP-62; experiment: NCI DTP human tumor cell line screen (SRB); conditions: Non-Small Cell Lung Cancer, 10 μM, 48 h
How it was run: as §1

[6] = test system: HOP-92; experiment: NCI DTP human tumor cell line screen (SRB); conditions: Non-Small Cell Lung Cancer, 10 μM, 48 h
How it was run: as §1

[7] = test system: HT29; experiment: NCI DTP human tumor cell line screen (SRB); conditions: Colon Cancer, 10 μM, 48 h
How it was run: as §1

[8] = test system: KM12; experiment: NCI DTP human tumor cell line screen (SRB); conditions: Colon Cancer, 10 μM, 48 h
How it was run: as §1

[9] = test system: M14; experiment: NCI DTP human tumor cell line screen (SRB); conditions: Melanoma, 10 μM, 48 h
How it was run: as §1

[10] = test system: MALME-3M; experiment: NCI DTP human tumor cell line screen (SRB); conditions: Melanoma, 10 μM, 48 h
How it was run: as §1

[11] = test system: MCF7; experiment: NCI DTP human tumor cell line screen (SRB); conditions: Breast Cancer, 10 μM, 48 h
How it was run: as §1

[12] = test system: MDA-MB-435; experiment: NCI DTP human tumor cell line screen (SRB); conditions: Breast Cancer, 10 μM, 48 h
How it was run: as §1

[13] = test system: MOLT-4; experiment: NCI DTP human tumor cell line screen (SRB); conditions: Leukemia, 10 μM, 48 h
How it was run: as §1

[14] = test system: NCI-H23; experiment: NCI DTP human tumor cell line screen (SRB); conditions: Non-Small Cell Lung Cancer, 10 μM, 48 h
How it was run: as §1

[15] = test system: NCI-H322M; experiment: NCI DTP human tumor cell line screen (SRB); conditions: Non-Small Cell Lung Cancer, 10 μM, 48 h
How it was run: as §1

[16] = test system: NCI-H460; experiment: NCI DTP human tumor cell line screen (SRB); conditions: Non-Small Cell Lung Cancer, 10 μM, 48 h
How it was run: as §1

[17] = test system: NCI-H522; experiment: NCI DTP human tumor cell line screen (SRB); conditions: Non-Small Cell Lung Cancer, 10 μM, 48 h
How it was run: as §1

[18] = test system: NCI/ADR-RES; experiment: NCI DTP human tumor cell line screen (SRB); conditions: Breast Cancer, 10 μM, 48 h
How it was run: as §1

[19] = test system: OVCAR-5; experiment: NCI DTP human tumor cell line screen (SRB); conditions: Ovarian Cancer, 10 μM, 48 h
How it was run: as §1

[20] = test system: SF-268; experiment: NCI DTP human tumor cell line screen (SRB); conditions: CNS Cancer, 10 μM, 48 h
How it was run: as §1

[21] = test system: SW-620; experiment: NCI DTP human tumor cell line screen (SRB); conditions: Colon Cancer, 10 μM, 48 h
How it was run: as §1

[22] = test system: TK-10; experiment: NCI DTP human tumor cell line screen (SRB); conditions: Renal Cancer, 10 μM, 48 h
How it was run: as §1

[23] = test system: UO-31; experiment: NCI DTP human tumor cell line screen (SRB); conditions: Renal Cancer, 10 μM, 48 h
How it was run: as §1

[24] = test system: approximately 60 human tumor cell lines; experiment: NCI DTP human tumor cell line screen, whole panel statistics
Method: Representative compounds of the invention, prepared as described in EXAMPLES 1-6, were submitted to the Developmental Therapeutics Program of the United States National Cancer Institute (NCl) to screen for anti-cancer activity. The anti-cancer activities of the six compounds were tested against approximately 60 human tumor cell lines representing leukemia, melanoma, and cancers of the lung, colon, breast, ovary, kidney, prostate, and brain. The following screening methodology was provided by the NCl. […] For experimental screens, cells were inoculated into 96 well microtiter plates in 100 μL at plating densities ranging from 5,000 to 40,000 cells/well depending on the doubling time of individual cell lines. After cell inoculation, the microtiter plates were incubated at 37° C., 5% carbon dioxide, 95% air and 100% relative humidity for 24 hours prior to addition of the compounds. After 24 hours of incubation, two plates of each cell line were fixed in situ with trichloroacetic acid (TCA) to represent a measurement of the cell population for each cell line at the time of compound addition (Tz). The compounds were solubilized in dimethyl sulfoxide at 400-fold the desired final maximum test concentration and stored frozen prior to use. At the time of drug addition, frozen aliquots of the compounds thawed and diluted with complete medium containing 50 μg/ml gentamicin. Aliquots of 100 μl of these different compound dilutions were added to the appropriate microtiter wells already containing 100 μl of medium, resulting in the required final compound concentration of 10 μM. Following compound addition, the plates were incubated for an additional 48 h at 37° C., 5% carbon dioxide, 95% air, and 100% relative humidity. For adherent cells, the assay was terminated by the addition of cold TCA. Cells were fixed in situ by the gentle addition of 50 μl of cold 50% (w/v) TCA (final concentration, 10% TCA) and incubated for 60 minutes at 4° C. The supernatant was discarded, and the plates were washed five times with tap water and air dried. Sulforhodamine B (SRB) solution (100 μl) at 0.4% (w/v) in 1% acetic acid was added to each well, and plates were incubated for 10 minutes at room temperature. After staining, unbound dye was removed by washing five times with 1% acetic acid and the plates were air dried. Bound stain was subsequently solubilized with 10 mM trizma base, and the absorbance was read on an automated plate reader at a wavelength of 515 nm. For suspension cells, the methodology was the same except that the assay was terminated by fixing settled cells at the bottom of the wells by gently adding 50 μl of 80% TCA (final concentration, 16% TCA). Using the three absorbance measurements [time zero, (Tz), control growth, (C), and test growth in the presence of compound (Ti)], the percentage growth was calculated at each of the compound concentrations levels. Percentage growth inhibition was calculated with the following algorithms: [(Ti−Tz)/(C−Tz)]×100 for concentrations for which Ti>/=Tz [(Ti−Tz)/Tz]×100 for concentrations for which Ti<Tz The results of the NCl in vitro anticancer screening with six compounds against various human tumor cell lines are presented below in Tables 2-7. […] The growth percent mean, delta, and range for each compound are given below.

[25] = test system: Molt-4 human leukemia cells; experiment: Cell count of Molt-4 human leukemia cells over time; conditions: FIG. 11; [ART-Phe-Sal]=10 mM, [DHA]=10 μM, [ART-Tf]=12 μM; cells counted at different times
Method: Molt-4-lymphoblastoid cells were purchased from the American Type Culture Collection (Rockville, Md.). They are acute lympoblastic leukemia cells from human peripheral blood. Cultures were maintained in RPMI-1640 (Gibco, Long Island, N.Y.) supplemented with 10% fetal bovine serum (Hyclone, New Haven, Conn.). Cells were cultured at 37° C. in 5% CO2/95% air and 100% humidity, and were split 1:2 at a concentration of approximately 1×10^6/mL. Approximate cell numbers before experiment were between 150×10^3 to 300×10^3 per mL.
FIG. 11 compares the effects of ART-Phe-Sal, DHA, and artemisinin-tagged holotransferrin (ART-Tf) on Molt-4 human leukemia cell.

[26] = over all cell lines tested, 10 μM, 48 h

SMILES: CC1CCC2C(C)C(OCc3ccc(C(=O)NN=Cc4ccccc4O)cc3)OC3OC4(C)CCC1C32OO4 (stereo not shown) [ART-Phe-Sal, N′-(2-hydroxybenzylidene)-4-(dihydroxyartemisinin-methyl)-phenyl carbohydrazide]
- Growth Percent [1]: −12.09%
- Growth Percent [2]: 25.29%
- Growth Percent [3]: 37.90%
- Growth Percent [4]: 32.15%
- Growth Percent [5]: 12.31%
- Growth Percent [6]: 56.27%
- Growth Percent [7]: 22.93%
- Growth Percent [8]: 23.72%
- Growth Percent [9]: −37.45%
- Growth Percent [10]: 16.70%
- Growth Percent [11]: 12.70%
- Growth Percent [12]: 15.04%
- Growth Percent [13]: −30.65%
- Growth Percent [14]: 31.01%
- Growth Percent [15]: 23.76%
- Growth Percent [16]: 0.59%
- Growth Percent [17]: 5.74%
- Growth Percent [18]: 21.55%
- Growth Percent [19]: 49.55%
- Growth Percent [20]: 10.84%
- Growth Percent [21]: 30.24%
- Growth Percent [22]: 20.96%
- Growth Percent [23]: −17.67%
- inhibitory activities against cancer cells ([24]; DTP human tumor cell line screen, non-small cell lung, colon, breast, ovarian, leukemia, renal, melanoma, prostate, CNS cancer): inhibitory activities against several types of cancer cells
- mean growth percent ([24]; mean over all cell lines tested, 10 μM, 48 h): 10.55%
- delta value (growth percent) [24, 26]: 67.26
- range (growth percent) [24, 26]: 112.98
- effect on Molt-4 human leukemia cells (cell count, words) [25]: can effectively kill human leukemia cells; also recorded: more potent than either dihydroartemisinin (DHA) or artemisinin-tagged holotransferrin (ART-Tf)
